Assay [1] deals with T1, Ornithine decarboxylase (Mus musculus) (UniProt P00860).
T1 sequence (whole entry): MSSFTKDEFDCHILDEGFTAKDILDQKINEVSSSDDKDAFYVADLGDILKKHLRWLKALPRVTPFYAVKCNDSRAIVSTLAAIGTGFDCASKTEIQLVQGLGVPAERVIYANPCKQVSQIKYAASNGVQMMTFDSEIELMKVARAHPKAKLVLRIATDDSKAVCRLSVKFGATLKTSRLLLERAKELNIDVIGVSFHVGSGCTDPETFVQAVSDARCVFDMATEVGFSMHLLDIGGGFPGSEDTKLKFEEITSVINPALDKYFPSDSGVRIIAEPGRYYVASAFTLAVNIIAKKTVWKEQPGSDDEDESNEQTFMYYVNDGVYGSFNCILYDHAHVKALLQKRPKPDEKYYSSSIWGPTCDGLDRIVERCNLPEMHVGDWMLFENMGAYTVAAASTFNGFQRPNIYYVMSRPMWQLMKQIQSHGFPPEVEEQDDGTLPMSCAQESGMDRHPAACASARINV
In words: Inhibition of ornithine decarboxylase activity in hairless mouse skin in vivo. The class given is organism-based.

The target in assay [2] is T2, Retinoic acid receptor beta (Homo sapiens, UniProt P10826).
T2 sequence (P10826 whole entry): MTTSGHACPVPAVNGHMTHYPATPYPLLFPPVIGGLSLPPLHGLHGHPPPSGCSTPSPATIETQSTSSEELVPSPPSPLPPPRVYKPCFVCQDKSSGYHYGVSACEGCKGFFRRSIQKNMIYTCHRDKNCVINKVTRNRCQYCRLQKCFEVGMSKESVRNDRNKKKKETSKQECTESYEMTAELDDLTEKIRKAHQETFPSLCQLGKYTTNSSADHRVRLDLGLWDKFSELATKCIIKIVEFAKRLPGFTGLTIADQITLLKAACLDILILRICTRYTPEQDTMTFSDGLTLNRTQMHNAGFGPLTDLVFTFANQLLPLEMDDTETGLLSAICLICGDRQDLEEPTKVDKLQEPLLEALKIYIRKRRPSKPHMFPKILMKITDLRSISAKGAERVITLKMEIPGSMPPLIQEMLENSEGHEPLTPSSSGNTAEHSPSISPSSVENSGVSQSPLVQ
In words: Binding affinity for Retinoic acid receptor beta.

The target of assay [3] is T3, Retinoic acid receptor alpha (Homo sapiens, UniProt P10276).
T3 sequence (P10276 whole entry): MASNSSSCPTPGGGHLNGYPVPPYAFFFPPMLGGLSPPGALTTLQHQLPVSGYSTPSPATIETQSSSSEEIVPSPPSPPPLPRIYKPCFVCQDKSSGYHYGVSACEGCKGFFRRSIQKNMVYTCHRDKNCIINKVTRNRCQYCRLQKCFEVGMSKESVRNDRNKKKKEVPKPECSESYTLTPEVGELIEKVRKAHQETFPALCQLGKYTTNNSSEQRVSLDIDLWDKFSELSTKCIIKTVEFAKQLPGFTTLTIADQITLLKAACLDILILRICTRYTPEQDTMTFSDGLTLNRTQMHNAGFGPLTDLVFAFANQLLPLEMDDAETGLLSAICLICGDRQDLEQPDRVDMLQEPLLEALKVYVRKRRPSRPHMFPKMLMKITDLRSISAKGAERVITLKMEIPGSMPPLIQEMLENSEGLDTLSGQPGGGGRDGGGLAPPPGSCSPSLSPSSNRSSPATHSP
The assay is described as follows: Transactivation potency for Retinoic acid receptor alpha; Not active.

The target in assay [4] is T3, Retinoic acid receptor alpha. The assay is described as follows: Binding affinity for Retinoic acid receptor alpha.
The target of assay [5] is T4, Retinoic acid receptor gamma (Homo sapiens, UniProt P13631).
T4 sequence (P13631 whole entry): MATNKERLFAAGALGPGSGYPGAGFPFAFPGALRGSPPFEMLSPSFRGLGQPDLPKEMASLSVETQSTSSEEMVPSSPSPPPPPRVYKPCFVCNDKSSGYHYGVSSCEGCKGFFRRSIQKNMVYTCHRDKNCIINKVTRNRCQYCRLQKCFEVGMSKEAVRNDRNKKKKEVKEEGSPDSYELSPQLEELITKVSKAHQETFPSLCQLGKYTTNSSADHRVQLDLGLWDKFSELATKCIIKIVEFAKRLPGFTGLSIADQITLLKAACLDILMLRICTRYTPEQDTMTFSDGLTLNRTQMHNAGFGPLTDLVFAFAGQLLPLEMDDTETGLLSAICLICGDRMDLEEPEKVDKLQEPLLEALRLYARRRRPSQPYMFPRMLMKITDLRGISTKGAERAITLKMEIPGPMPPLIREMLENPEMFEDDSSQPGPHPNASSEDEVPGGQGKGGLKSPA
In words: Transactivation potency for Retinoic acid receptor gamma; Not active.

In assay [6] the target is T2, Retinoic acid receptor beta. The assay is described as follows: Transactivation potency for Retinoic acid receptor beta; Not active.
The target in assay [7] is T4, Retinoic acid receptor gamma. In words: Binding affinity for Retinoic acid receptor gamma.
Assay [8] addresses T2, Retinoic acid receptor beta. In words: Transactivation potency for Retinoic acid receptor beta.
In assay [9] the target is T4, Retinoic acid receptor gamma. In words: Transactivation potency for Retinoic acid receptor gamma.
The target of assay [10] is T3, Retinoic acid receptor alpha. In words: Transactivation potency for Retinoic acid receptor alpha.
Assay [11] shares this target. The assay is described as follows: Binding affinity for Retinoic acid receptor alpha; Not active.

For 20 molecules, IC60, Kd and EC50 results are on record in ChEMBL document CHEMBL1130529, “Synthesis and biological activity of 1,2,3,4-tetrahydroquinoline and 3,4-(1H)-dihydroquinolin-2-one analogs of retinoic acid” (Bioorg Med Chem Lett, 1997).

Broadly, the Kd is the concentration at which binding is half-saturated. Lower therefore signals higher affinity. As a reminder, the EC50 is the concentration that produces a half-maximal response.

In assay [1], `CCOC(=O)c1ccc(C#Cc2ccc3c(c2)C(C)(C)CC(=O)N3C(C)C)cc1` yielded an IC60 of 6 nM.
On the same count and under the same terms, the same measure for `CCOC(=O)c1ccc(/C=C(\C)c2ccc3c(c2)C(C)(C)CCC3(C)C)cc1`: 0.33 nM; for `CCOC(=O)c1ccc(C#Cc2ccc3c(c2)C(C)(C)CC(=O)N3)cc1`: greater than 300 nM.
With `CC1(C)CC(=O)Nc2ccc(C#Cc3ccc(C(=O)O)cc3)cc21`, the Kd in [2], in [4] and in assay [7] was greater than 1000 nM in each case. Also, the half-maximal effective concentration (EC50) result in assay [3], in assay [5] and in [6] was “Not Active” in each case.
As for `CC1(C)CC(=O)Nc2cc(C#Cc3ccc(C(=O)O)cc3)ccc21`, the EC50 in assay [8] is 1000 nM; in [3], “Not Active”; in assay [9] it was 200 nM. Besides, the Kd in assay [2], in [4] and in assay [7] was greater than 1000 nM each time.
`CCOC(=O)c1ccc(C#Cc2ccc3c(c2)NC(=O)CC3(C)C)cc1` returned an IC60 in assay [1] greater than 300 nM.
`CCOC(=O)c1ccc(C#Cc2ccc3c(c2)N(C(C)C)CCC3(C)C)cc1` displayed an IC60 in assay [1] of less than 0.1 nM.
For `CCCCCCCN1CCC(C)(C)c2cc(C#Cc3ccc(C(=O)O)cc3)ccc21`, the values for the EC50 in [8], in assay [3] and in assay [9] were 280 nM, “Not Active” and 260 nM, respectively. The Kd in assay [2], in assay [4] and in assay [7] was greater than 1000 nM each time.
For the molecule `CCOC(=O)c1ccc(C#Cc2ccc3c(c2)C(C)(C)CCN3)cc1`, the IC60 in assay [1] is 5 nM.
Regarding `CCCCCCCN1CCC(C)(C)c2cc(C#Cc3ccc(C(=O)OCC)cc3)ccc21`, the IC60 in assay [1] is greater than 300 nM.
In assay [1], `CCOC(=O)c1ccc(C#Cc2ccc3c(c2)NCCC3(C)C)cc1` gave an IC60 of 7 nM.
As to `CC(C)N1CCC(C)(C)c2cc(C#Cc3ccc(C(=O)O)cc3)ccc21`, the EC50 in [8] was 10 nM; in [3], “Not Active”; in assay [9] it was 6 nM. Further, the values for the Kd in assay [2], in [4] and in [7] were 60 nM, 627 nM and 72 nM, respectively.
Turning to `CC1(C)CCNc2ccc(C#Cc3ccc(C(=O)O)cc3)cc21`, the EC50 in assay [8] came out at 170 nM; in assay [9], 130 nM; in [10] it was 2300 nM. Also, the equilibrium dissociation constant (Kd) is 714 nM in assay [2], 5200 nM in assay [4] and 2420 nM in assay [7].
`CC(C)N1C(=O)CC(C)(C)c2cc(C#Cc3ccc(C(=O)O)cc3)ccc21`: the concentration for a half-maximal effect (EC50) in [8] is 4 nM; in assay [3] it was “Not Active”; in assay [9] it was 4 nM. Further, the equilibrium dissociation constant (Kd) in assay [2] worked out at 17 nM; in assay [4], 136 nM; in assay [7] it was 17 nM.
In the case of `CCOC(=O)c1ccc(C#Cc2ccc3c(c2)C(C)(C)CCN3C(C)C)cc1`, in assay [1], the IC60 was found to be 0.4 nM.
`CC1=C(/C=C/C(C)=C/C=C/C(C)=C/C(=O)O)C(C)(C)CCC1`: the IC60 in assay [1] turned out to be 1.4 nM.
In the case of `CC1(C)CCNc2cc(C#Cc3ccc(C(=O)O)cc3)ccc21`, the EC50 is 36 nM in [8], “Not Active” in assay [3] and 54 nM in [9]. Besides, the figures for the Kd in [2], in assay [11] and in [7] were 211 nM, “Not Active” and 233 nM, respectively.
`CCOC(=O)c1ccc(C#Cc2ccc3c(c2)N(C(C)C)C(=O)CC3(C)C)cc1` registered an IC60 in assay [1] of 2.9 nM.
On to `CC(C)N1CCC(C)(C)c2ccc(C#Cc3ccc(C(=O)O)cc3)cc21`, for which the figures for the EC50 in [8], in assay [3] (read-out: EC50) and in assay [9] were 3 nM, 17 nM and 3 nM, respectively. The Kd in assay [2] was 18 nM; in assay [4], 52 nM; in assay [7] it was 52 nM.
In the case of `CC(C)N1C(=O)CC(C)(C)c2ccc(C#Cc3ccc(C(=O)O)cc3)cc21`, the figures for the EC50 in [8], in [3] and in assay [9] were 4 nM, “Not Active” and 20 nM, respectively. In addition, the Kd stood at 18 nM in assay [2], 58 nM in [4] and 23 nM in assay [7].
